Assay results reported in article PMC7481428, “Celastrol induces ROS-mediated apoptosis via directly targeting peroxiredoxin-2 in gastric cancer cells” (Theranostics, 2020).

Target: T1, peroxiredoxin-2 (Prdx2) (Homo sapiens, UniProt P32119)
T1 construct: His-tagged recombinant Prdx2 (rhPrdx2)
T1 sequence (P32119 2-198): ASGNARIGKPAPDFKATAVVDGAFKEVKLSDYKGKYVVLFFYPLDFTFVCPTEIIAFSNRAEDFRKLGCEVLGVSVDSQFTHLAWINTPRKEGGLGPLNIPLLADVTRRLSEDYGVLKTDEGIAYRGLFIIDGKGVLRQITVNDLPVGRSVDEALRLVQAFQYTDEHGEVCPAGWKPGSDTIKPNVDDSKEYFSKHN
Test: ITC (also SPR KD […]; peroxidase inhibition IC50 […])
Format: binding

CC1=C(O)C(=O)C=C2C1=CC=C1[C@@]2(C)CC[C@@]2(C)[C@@H]3C[C@](C)(C(=O)O)CC[C@]3(C)CC[C@]12C [Celastrol]
Kd: 650 nM
